# Assay results from patent US10300065B2, “Method of treating or prevention of atherothrombotic events in patients with history of myocardial infarction” (ASTRAZENECA AB, priority 2015, dated 2019).
# Like-named read-outs stand apart in the source and are kept apart here.
# Tests used:
# [1] = tested on: patients with a history of myocardial infarction; conditions: for TIMI major bleeding events per year if 10,000 patients were started on treatment versus placebo: intention-to-treat data; for Death: (%) / Death: n / Non-Cardiovascular death: (%) / Non-Cardiovascular death: n: intention-to-treat population; for proportion of patients who prematurely discontinued treatment: over the duration of the trial
# Text: Any erroneously treated patients (e.g., randomized to ticagrelor but actually given placebo) were to be accounted for in the actual treatment group.
# The primary efficacy endpoint was the composite of cardiovascular death, myocardial infarction, or stroke. Secondary endpoints were cardiovascular death and all-cause mortality. The analysis of secondary endpoints proceeded in a hierarchical fashion, starting with cardiovascular death and then death from any cause. Additional endpoints listed below were evaluated on an exploratory basis. Exploratory efficacy endpoints included substituting coronary heart disease death for cardiovascular death, and the additional end points of urgent coronary revascularization, unstable angina, and transient ischemic attack. The primary safety endpoint was TIMI major bleeding. Other safety endpoints included intracranial hemorrhage (ICH) and fatal bleeding. […] A central clinical events committee whose members were unaware of the treatment assignments adjudicated all efficacy endpoints and bleeding episodes.
# Safety analyses included all randomized patients who received at least one dose of study drug and for whom post-dose data were available. Patients were censored at the first of the pre-specified Common Study End Date, withdrawal of consent, or the last clinical event assessment. Safety was analyzed as on-treatment including all events occurring after first dose and within 7 days after the last dose of study drug. […] Event rates are expressed as Kaplan-Meier estimates of cumulative incidence.
# platelets = conditions: either ticagrelor group
# thromboxane B2 = conditions: either ticagrelor group
# [2] = 90 mg bid (N = 6988), listed as ticagrelor
smiles,measurement,setting,value
"CCCSc1nc(N[C@@H]2C[C@H]2c2ccc(F)c(F)c2)c2nnn([C@@H]3C[C@H](OCCO)[C@@H](O)[C@H]3O)c2n1 [Ticagrelor, (1S,2S,3R,5S)-3-[7-{[(1R,2S)-2-(3,4-difluorophenyl)cyclopropyl]amino}-5-(propylthio)-3H-[1,2,3]-triazolo[4,5-d]pyrimidin-3-yl]-5-(2-hydroxyethoxy)cyclopentane-1,2-diol]","TIMI major bleeding events per year if 10,000 patients were started on treatment versus placebo",[1]; 60 mg bid,31
same,Death: (%),[1]; 60 mg bid,(4.1) %
same,Death: n,[1]; 60 mg bid,289
same,Non-Cardiovascular death: (%),[1]; 60 mg bid,(1.6) %
same,Non-Cardiovascular death: n,[1]; 60 mg bid,113
same,proportion of patients who prematurely discontinued treatment,[1]; 60 mg,28.7%
same,"Dyspnea, 3-year event rate",[1]; 90 mg bid,18.9%
same,Fatal bleeding: ARI (%),[1]; 90 mg bid,−0.15%
same,Hypotension,[1]; 90 mg bid,0.66 events/100 pt years
same,ICH: ARI (%),[1]; 90 mg bid,0.09%
same,ICH: NNH,[1]; 90 mg bid,1111
same,TIMI major bleeding: ARI (%),[1]; 90 mg bid,1.54%
same,TIMI major bleeding: NNH,[1]; 90 mg bid,65
same,frequency of death (including bleeding),[1]; 90 mg bid,4.8%
same,"frequency of death, bleeding events excluded",[1]; 90 mg bid,4.4%
same,median duration of resolved dyspnea adverse events,[1]; 90 mg bid,22 days
same,Adverse event leading to death: (%),[1]; 90 mg bid (N = 6988),(2.3) %
same,Adverse event leading to death: n,[1]; 90 mg bid (N = 6988),161
same,Adverse event leading to discontinuation of study drug: (%),[1]; 90 mg bid (N = 6988),(18.7) %
same,Adverse event leading to discontinuation of study drug: n,[1]; 90 mg bid (N = 6988),1306
same,Any adverse event: (%),[1]; 90 mg bid (N = 6988),(76.2) %
same,Any adverse event: n,[1]; 90 mg bid (N = 6988),5327
same,Any serious adverse event: (%),[1]; 90 mg bid (N = 6988),(21.7) %
same,Any serious adverse event: n,[1]; 90 mg bid (N = 6988),1514
same,Bleeding leading to study drug discontinuation: 3-year Kaplan-Meier estimate,[1]; 90 mg bid (N = 6988),(7.80) %
same,Bleeding leading to study drug discontinuation: n,[1]; 90 mg bid (N = 6988),454
same,Bleeding requiring transfusion: 3-year Kaplan-Meier estimate,[1]; 90 mg bid (N = 6988),(2.40) %
same,Bleeding requiring transfusion: n,[1]; 90 mg bid (N = 6988),122
same,Bradyarrhythmia adverse event: (%),[1]; 90 mg bid (N = 6988),(1.5) %
same,Bradyarrhythmia adverse event: n,[1]; 90 mg bid (N = 6988),105
same,Dyspnea AE: (%),[1]; 90 mg bid (N = 6988),(17.22) %
same,Dyspnea AE: n,[1]; 90 mg bid (N = 6988),1204
same,Dyspnea SAE: (%),[1]; 90 mg bid (N = 6988),(0.3) %
same,Dyspnea SAE: n,[1]; 90 mg bid (N = 6988),22
same,Dyspnea leading to study drug discontinuation: (%),[1]; 90 mg bid (N = 6988),(6.2) %
same,Dyspnea leading to study drug discontinuation: n,[1]; 90 mg bid (N = 6988),430
same,Fatal Bleeding: 3-year Kaplan-Meier estimate,[1]; 90 mg bid (N = 6988),(0.11) %
same,Fatal Bleeding: n,[1]; 90 mg bid (N = 6988),6
same,Fatal bleeding or non-fatal intracranial hemorrhage: 3-year Kaplan-Meier estimate,[1]; 90 mg bid (N = 6988),(0.71) %
same,Fatal bleeding or non-fatal intracranial hemorrhage: n,[1]; 90 mg bid (N = 6988),33
same,Gout adverse event: (%),[1]; 90 mg bid (N = 6988),(1.4) %
same,Gout adverse event: n,[1]; 90 mg bid (N = 6988),99
same,Intracranial Hemorrhage: 3-year Kaplan-Meier estimate,[1]; 90 mg bid (N = 6988),(0.56) %
same,Intracranial Hemorrhage: n,[1]; 90 mg bid (N = 6988),29
same,Renal adverse event: (%),[1]; 90 mg bid (N = 6988),(2.4) %
same,Renal adverse event: n,[1]; 90 mg bid (N = 6988),166
same,Serious adverse event leading to discontinuation of study drug: (%),[1]; 90 mg bid (N = 6988),(3.7) %
same,Serious adverse event leading to discontinuation of study drug: n,[1]; 90 mg bid (N = 6988),256
same,TIMI Major bleeding: 3-year Kaplan-Meier estimate,[1]; 90 mg bid (N = 6988),(2.60) %
same,TIMI Major bleeding: n,[1]; 90 mg bid (N = 6988),127
same,TIMI Minor bleeding: 3-year Kaplan-Meier estimate,[1]; 90 mg bid (N = 6988),(1.31) %
same,TIMI Minor bleeding: n,[1]; 90 mg bid (N = 6988),66
same,Bleeding leading to study drug discontinuation: 3-year Kaplan-Meier estimate,[1]; [2],7.8%
same,Bleeding requiring transfusion: 3-year Kaplan-Meier estimate,[1]; [2],2.4%
same,Dyspnea leading to study drug discontinuation: (%),[1]; [2],6.5%
same,Fatal Bleeding: 3-year Kaplan-Meier estimate,[1]; [2],0.1%
same,Intracranial Hemorrhage: 3-year Kaplan-Meier estimate,[1]; [2],0.6%
same,TIMI Major bleeding: 3-year Kaplan-Meier estimate,[1]; [2],2.60%
same,Bleeding leading to study drug discontinuation: HR,[1]; 90 mg bid vs Placebo,5.67
same,Bleeding requiring transfusion: HR,[1]; 90 mg bid vs Placebo,3.75
same,Dyspnea AE: HR,[1]; 90 mg bid vs Placebo,3.55
same,Dyspnea SAE: HR,[1]; 90 mg bid vs Placebo,3.02
same,Dyspnea leading to study drug discontinuation: HR,[1]; 90 mg bid vs Placebo,8.89
same,Fatal Bleeding: HR,[1]; 90 mg bid vs Placebo,0.58
same,Fatal bleeding or non-fatal intracranial hemorrhage: HR,[1]; 90 mg bid vs Placebo,1.20
same,Intracranial Hemorrhage: HR,[1]; 90 mg bid vs Placebo,1.44
same,TIMI Major bleeding: HR,[1]; 90 mg bid vs Placebo,2.69
same,TIMI Minor bleeding: HR,[1]; 90 mg bid vs Placebo,4.15
same,"TIMI major bleeding events per year if 10,000 patients were started on treatment versus placebo",[1]; 90 mg bid,41
same,Death: (%),[1]; 90 mg bid,(4.6) %
same,Death: n,[1]; 90 mg bid,326
same,Non-Cardiovascular death: (%),[1]; 90 mg bid,(2.0) %
same,Non-Cardiovascular death: n,[1]; 90 mg bid,142
same,proportion of patients who prematurely discontinued treatment,[1]; 90 mg,32.0%
same,serum uric acid level increase from baseline,"[1]; PEGASUS, 60 mg bid",approximately 0.2 mg/dL
same,"Gout, patients","[1]; PEGASUS, experimental arm",1.5%
same,dyspneic episodes characterized as mild,[1]; either dose of ticagrelor,57%
same,dyspneic episodes characterized as moderate,[1]; either dose of ticagrelor,38%
same,"dyspnea as a serious adverse event, 3-year rate",[1]; patients on ticagrelor,0.3%
same,VerifyNow Aspirin assay results vs placebo group,platelets,no differences
same,serum thromboxane B2 levels vs placebo group,thromboxane B2,no differences
